Test results as given in US20120003191A1, “VALPROIC ACID, DERIVATIVES, ANALOGUES, AND COMPOSITIONS INCLUDING SAME AND METHODS FOR THEIR THERAPEUTIC USE” (priority 2009, published 2012).

Columns and labels:
α7 integrin = assay: FDG based β-galactosidase fluorescent assay (reporter for α7 expression); format: cell-based, mouse; details: 2 mM VPA, 48 hours, α7+/− myotubes from day two of differentiation
Procedure: The α7^+/− mice were derived as reported in Flintoff-Dye, et al. Role for the alpha7beta1 integrin in vascular development and integrity, Dev. Dyn. 234:11-21 (2005). These mice were engineered to contain the LacZ gene driven by the α7 integrin promoter. Skeletal muscles from the hind limbs (including gastrocnemius-soleus, quadriceps and tibialis anterior) of a 3-week old α7^+/− mouse were removed under sterile conditions, finely minced in Hank's balanced salt solution (HBSS) and incubated in 5 ml of enzyme solution I consisting of 1.5 U/ml collagenase D (0.15 U/mg powder, from Roche Diagnostics, Indianapolis, Ind.), 2.4 U/ml dispase II (neutral protease, grade II, 0.8 U/mg powder, from Roche Diagnostics) and 2.5 mM calcium chloride for 30 minutes at 37° C. with trituration every 5 minutes. The supernatant was decanted into 5 ml of 20% fetal bovine serum (FBS) (Biomeda Corporation, Foster City, Calif.) in HBSS. Enzyme solution II consisting of 0.6 mg/ml trypsin (stock solution 0.5%, from Invitrogen) in HBSS was added to the remaining muscle fragments, incubated for 30 minutes as above, and the cell suspensions were pooled. […] The fluorescence in each well was quantified using an Analyst plate reader (Molecular Devices, Sunnyvale, Calif.).

Akt = assay: Western blotting of activated and total Akt in α7+/− myotubes; format: cell-based, mouse
Procedure: α7^+/− myogenic cells were cultured on 1% gelatin-coated plastic plates in Ham's F-10 growth medium (20% FBS, 0.5% chick embryo extract, 5 ng/ml bFGF, 2 mM glutamine, 100 U/ml penicillin and 100 μg/ml streptomycin). After six passages, cells were grown in DMEM containing 20% FBS, 0.5% chick embryo extract, 2 mM glutamine, 100 U/ml penicillin and 100 μg/ml streptomycin. Differentiation was induced by switching the medium to DMEM containing 2% horse serum and antibiotics when cells attained 90% confluence. […] Wortmannin was used at 100 nM and added fresh every 24 hours.
To test whether Akt activation by VPA in α7^+/− myotubes is dependent on PI3K, α7^+/− cells were differentiated for 48 hours and treated for 72 hours with 2 mM VPA with or without 100 nM Wortmannin. Fresh drugs were added every 24 hours. Phase-contrast micrographs of the cultures were captured at the end of 72 hours of treatment. To determine status of Akt activation in the cultures, α7^+/− myotubes were treated as above and protein extracts were made at the end of 72 hours of treatment using a 2% Triton X-100 extraction buffer (see below). Immunoblotting for phospho- and total Akt were done as detailed below.
Cell lysates of differentiating cells on 60 mm dishes were prepared as follows: the cells were washed twice with PBS and 200 μl Triton X-100 lysis buffer (2% Triton X-100, 20 mM Tris-Cl, pH 7.4, 150 mM NaCl, 1 mM EDTA, 1 mM EGTA, 2.5 mM NaPPi, 1 mM β-glycerophosphate, 1 mM sodium vanadate, 1:200 Protease Inhibitor Cocktail (EMD Chemicals, San Diego, Calif.) and 1 mM PMSF) were added. The cells were scraped and transferred into Eppendorf tubes, the cell suspensions were triturated and centrifuged at 8000×g at 4° C. for 10 minutes, and the supernatants were collected. Lysates from mouse skeletal muscle were prepared as follows: the quadriceps muscles were dissected out, snap-frozen in liquid nitrogen and pulverized using a mortar and pestle. The powdered muscles were collected in Eppendorf tubes, 500 μl of Triton X-100 lysis buffer were added, rotated at 4° C. for 30 minutes, centrifuged at 8000×g for 10 minutes and the supernatants were collected. Protein concentrations were determined by the Bradford assay. SDS extracts of muscle were made by boiling powdered muscle in extraction buffer (100 mM Tris-Cl, pH 8.0, 10% SDS, 10 mM EDTA and 10% glycerol) for 10 minutes, vortexing vigorously, and centrifuging at 8000×g for 10 minutes. The supernatants were collected and protein concentrations were determined spectrophotometrically at OD260 and OD280. SDS-PAGE was carried out using 50 μg of protein for each sample and separated proteins were transferred to nitrocellulose membranes. For western blotting using antibodies against signaling proteins, membranes were blocked in 5% BSA in TBST for 2 hours at room temperature. For all other blots, incubations were done in 5% milk in TBST overnight at 4° C. The membranes were incubated overnight at 4° C. with primary antibodies diluted 1:1000 in 1% BSA in TBST. After washing in 1% BSA in TBST, blots were incubated for 1 hour in HRP-conjugated secondary antibodies diluted 1:5000 in 1% BSA in TBST. Blots were processed using the ECL kit (Amersham Biosciences, Piscataway, N.J.) and bands were visualized with Kodak Biomax MR film (Kodak, Rochester, N.Y.). ImageQuant analysis software (Molecular Dynamics, Sunnyvale, Calif.) was used to quantify band intensity.

For `CCCC(CCC)C(=O)O` [VPA, valproic acid], the “β-galactosidase activity (reporter for α7 expression), highest level” value (α7 integrin) was 1.4 fold, the “levels of activated Akt, time course” value (Akt; 2 mM VPA daily, extracts every 24 hours up to 144 hours) was “higher levels of activated Akt at all time-points” and the “concentration of maximal Akt activation” value (Akt; 1 hour exposure) was 30 mM. The “levels of activated Akt” value (Akt; VPA for 48 or 72 hours) was “higher levels”, the “higher levels of Akt in VPA treated cultures” value (Akt; beyond 96 hours) was 2 to 3 fold and the “time to Akt activation” value (Akt; various concentrations of VPA, two-day old differentiating cultures) was at most 1 h.
